This note sets out measurements from article PMC6934184, “Selective DNA-PKcs inhibition extends the therapeutic index of localized radiotherapy and chemotherapy” (The Journal of Clinical Investigation, 2019).

The structures appear in SMILES notation.

This test concerns the target T1, STK3 (MST2) (Homo sapiens, UniProt Q13188).
T1 construct: purchased Thermo Fisher Scientific (Life Technologies) SelectScreen
In words: SelectScreen Z'LYTE. The test is classed as biochemical. Summed up: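 Percent values come from Thermo SelectScreen profiling of NU5455, combining activity and binding assays. CSF1R was run in Z'LYTE format at Km app ATP, and CAMK1 in Adapta format with ATP listed at 10.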

T1 sequence (Q13188 whole entry): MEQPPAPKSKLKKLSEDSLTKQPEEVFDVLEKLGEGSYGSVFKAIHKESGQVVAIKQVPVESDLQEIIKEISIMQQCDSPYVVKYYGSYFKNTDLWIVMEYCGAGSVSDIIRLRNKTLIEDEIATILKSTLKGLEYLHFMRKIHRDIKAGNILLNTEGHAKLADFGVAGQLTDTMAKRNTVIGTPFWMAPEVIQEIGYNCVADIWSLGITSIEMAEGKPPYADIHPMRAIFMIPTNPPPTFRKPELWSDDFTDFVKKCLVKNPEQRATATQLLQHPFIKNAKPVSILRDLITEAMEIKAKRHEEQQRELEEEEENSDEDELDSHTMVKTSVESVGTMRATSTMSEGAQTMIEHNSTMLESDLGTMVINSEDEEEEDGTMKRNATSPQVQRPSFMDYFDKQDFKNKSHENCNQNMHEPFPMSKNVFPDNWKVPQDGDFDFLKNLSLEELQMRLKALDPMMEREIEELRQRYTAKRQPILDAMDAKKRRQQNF

Usually inhibition stands for the change of the read-out against control, counted positive when it falls. On to `CN(C(=O)CN1CCOCC1)c1ccc2sc3c(-c4cccc5c(=O)cc(N6CC7CCC(C6)O7)oc45)cccc3c2c1` [NU5455], for which the inhibition at 1 µM is -10.3%.
